# Measured values published in PMC12073402, “A Selective MAP3K1 Inhibitor Facilitates Discovery of NPM1 as a Member of the Network” (Molecules, 2025).
# Assays:
# Assay in all cases: KiNativ kinome profiling in PANC-1 lysate
# Assay type in all cases: binding
# PITSLRE = PITSLRE (Homo sapiens, UniProt P21127); settings: Lys2
# Source text: (§1) To assess target engagement and selectivity, we opted to conduct a kinome screen (KiNativ) in PANC-1 cell lysates. This chemical proteomics (chemoproteomics) methodology allows for the evaluation of small-molecule binding to protein kinases in native systems such as cell lysates. KiNativ utilizes a soluble chemical probe comprising ATP linked to biotin through an acyl-phosphate bond. The probe covalently modifies conserved lysine residues found in the ATP binding site of essentially all protein kinases (Figure 2A). To profile a kinase inhibitor, cell lysates are treated with a vehicle control or inhibitor prior to addition of the desthiobiotin ATP probe. The ATP probe occupies the ATP binding site in the kinase, which enables the conserved lysines to be biotinylated. […] The cell lysates are digested with a protease (trypsin), biotinylated peptides are affinity-enriched on streptavidin beads, and the labeled peptides are analyzed by liquid chromatography–tandem MS (Figure 2B). If an inhibitor binds to a kinase, it competes with the ATP, thus resulting in a loss of that kinase-associated peptide signal, allowing for the quantitative measurement of inhibitor binding. Unlike recombinant enzyme assays, KiNativ IC50 values are a direct measure of active site binding instead of enzymatic activity.
# (§2) Kinome profiling quantified the activity of 51-106 against >300 kinases in the PANC-1 cells. The results summarized in Figure 2C are the average of duplicate control and duplicate treated samples with 5 μM of 51-106 or DMSO.
# (§3) KiNativ assay with 51-106.
# (§4) ATP Loop: ATP binding loop
# (§5) Activation Loop: Activation loop
# (§6) ATP: ATP site in non-canonical kinase (e.g. lipid kinase)
# (§7) Protein Kinase Domain: Other lysine within kinase domain, possibly not in ATP binding site
# (§8) Other: Labeling of residue outside of the protein kinase domain, possibly not in ATP binding site
# (§9) No change. NB = No Binding (≤ 0)
# (§10) >100% increase in MS signal (>2 fold increase)
# (§11) Data points inhibited […] & not considered significant are left uncolored
# (§12) Note: This KiNativ dataset is the result of an analysis of duplicate treated samples and control samples.
# (§13) The % changes in MS signals being reported are statistically significant (Student T -test score < 0.04)
# PCTAIRE2, PCTAIRE3 = settings: 5 µM; Lys1; SKLTENLVALKEIR
# Source text: as §1, §2, §3, §4, §5, §6, §7, §8, §9, §10, §11, §12, §13
# LOK = molecular target: T1, LOK (Homo sapiens, UniProt O94804)
# T1 construct: we opted to conduct a kinome screen (KiNativ) in PANC-1 cell lysates; endogenous in cells; host or cells: PANC-1 cell lysate
# T1 sequence (O94804 whole entry): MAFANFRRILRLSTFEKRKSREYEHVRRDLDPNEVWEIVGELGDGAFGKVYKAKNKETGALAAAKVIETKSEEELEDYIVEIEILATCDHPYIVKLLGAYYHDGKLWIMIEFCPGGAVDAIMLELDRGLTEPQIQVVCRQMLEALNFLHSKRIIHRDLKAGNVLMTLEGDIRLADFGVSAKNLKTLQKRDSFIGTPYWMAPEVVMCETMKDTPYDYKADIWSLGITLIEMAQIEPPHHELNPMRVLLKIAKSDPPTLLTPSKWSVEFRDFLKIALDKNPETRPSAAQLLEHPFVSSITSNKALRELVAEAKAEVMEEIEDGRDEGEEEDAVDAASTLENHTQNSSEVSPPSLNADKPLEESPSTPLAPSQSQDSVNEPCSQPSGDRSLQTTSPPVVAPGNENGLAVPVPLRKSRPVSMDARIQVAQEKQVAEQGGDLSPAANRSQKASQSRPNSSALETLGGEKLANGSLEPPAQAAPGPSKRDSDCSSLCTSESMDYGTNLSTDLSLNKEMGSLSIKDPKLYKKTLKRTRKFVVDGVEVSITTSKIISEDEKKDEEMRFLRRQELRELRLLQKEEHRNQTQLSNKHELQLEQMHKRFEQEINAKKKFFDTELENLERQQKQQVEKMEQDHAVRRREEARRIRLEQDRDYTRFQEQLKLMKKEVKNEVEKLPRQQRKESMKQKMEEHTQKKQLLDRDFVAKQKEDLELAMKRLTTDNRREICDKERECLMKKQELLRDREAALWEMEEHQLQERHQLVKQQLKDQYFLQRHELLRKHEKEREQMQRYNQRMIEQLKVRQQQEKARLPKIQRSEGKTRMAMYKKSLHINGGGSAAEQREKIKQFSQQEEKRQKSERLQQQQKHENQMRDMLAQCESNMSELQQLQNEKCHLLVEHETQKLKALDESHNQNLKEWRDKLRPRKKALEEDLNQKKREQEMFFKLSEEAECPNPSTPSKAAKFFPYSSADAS
# Source text: as §1, §2, §3, §4, §5, §6, §7, §8, §9, §10, §11, §12, §13
# PCTAIRE2 = molecular target: T2, PCTAIRE2 (Homo sapiens, UniProt Q00537); settings: Lys2
# T2 construct: endogenous in cells; host or cells: PANC-1 cell lysate
# Source text: as §1, §2, §3, §4, §5, §6, §7, §8, §9, §10, §11, §12, §13
# MST1 = molecular target: T3, MST1 (Homo sapiens, UniProt Q13043); settings: Lys1
# T3 construct: endogenous in cells; host or cells: PANC-1
# Source text: as §1, §2, §3, §4, §5, §6, §7, §8, §9, §10, §11, §12, §13
# HCK = molecular target: T4, HCK (Homo sapiens, UniProt P08631)
# T4 construct: we opted to conduct a kinome screen (KiNativ) in PANC-1 cell lysates; endogenous in cells; host or cells: PANC-1 cell lysate
# T4 sequence (P08631 whole entry): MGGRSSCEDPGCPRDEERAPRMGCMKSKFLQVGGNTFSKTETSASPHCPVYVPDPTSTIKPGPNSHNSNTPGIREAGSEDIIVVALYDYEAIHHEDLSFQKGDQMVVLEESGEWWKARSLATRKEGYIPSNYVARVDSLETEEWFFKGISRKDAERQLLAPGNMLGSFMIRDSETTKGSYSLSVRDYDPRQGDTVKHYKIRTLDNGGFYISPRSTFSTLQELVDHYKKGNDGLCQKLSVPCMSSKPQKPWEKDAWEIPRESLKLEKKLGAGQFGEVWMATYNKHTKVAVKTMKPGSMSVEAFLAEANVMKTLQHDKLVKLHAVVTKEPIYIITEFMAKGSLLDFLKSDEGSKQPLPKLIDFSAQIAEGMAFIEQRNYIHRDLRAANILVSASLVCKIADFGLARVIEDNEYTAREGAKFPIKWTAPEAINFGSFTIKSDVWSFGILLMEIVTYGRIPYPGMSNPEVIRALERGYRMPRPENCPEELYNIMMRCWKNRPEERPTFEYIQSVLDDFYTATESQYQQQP
# Source text: as §1, §2, §3, §4, §5, §6, §7, §8, §9, §10, §11, §12, §13
# AGK = molecular target: T5, AGK (Homo sapiens, UniProt Q53H12); settings: ATP
# T5 construct: endogenous in cells; host or cells: PANC-1 cell lysate
# T5 sequence (Q53H12 whole entry): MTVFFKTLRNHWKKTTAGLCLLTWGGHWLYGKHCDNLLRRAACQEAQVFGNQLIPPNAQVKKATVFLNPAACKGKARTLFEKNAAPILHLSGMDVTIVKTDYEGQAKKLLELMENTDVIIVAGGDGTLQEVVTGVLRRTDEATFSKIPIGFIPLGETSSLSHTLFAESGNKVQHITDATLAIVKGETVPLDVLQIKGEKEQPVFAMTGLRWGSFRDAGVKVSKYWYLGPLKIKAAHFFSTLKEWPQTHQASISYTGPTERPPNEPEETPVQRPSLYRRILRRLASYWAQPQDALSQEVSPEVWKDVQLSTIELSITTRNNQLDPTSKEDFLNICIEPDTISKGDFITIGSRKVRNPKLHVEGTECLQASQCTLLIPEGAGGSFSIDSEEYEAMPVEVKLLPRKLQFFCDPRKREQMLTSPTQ
# Source text: as §1, §2, §3, §4, §5, §6, §7, §8, §9, §10, §11, §12, §13
# Erk3 = molecular target: T6, Erk3 (Homo sapiens, UniProt Q16659); settings: Lys2
# T6 construct: endogenous in cells; host or cells: PANC-1 lysate
# Source text: as §1, §2, §3, §4, §5, §6, §7, §8, §9, §10, §11, §12, §13
# FRAP = molecular target: T7, FRAP (Homo sapiens, UniProt P42345); settings: ATP
# T7 construct: endogenous in cells; host or cells: PANC-1 lysate
# Source text: as §1, §2, §3, §4, §5, §6, §7, §8, §9, §10, §11, §12, §13
# CDK9 = molecular target: T8, CDK9 (Homo sapiens, UniProt P50750)
# T8 construct: endogenous in cells; host or cells: PANC-1 cell lysate
# T8 sequence (P50750 whole entry): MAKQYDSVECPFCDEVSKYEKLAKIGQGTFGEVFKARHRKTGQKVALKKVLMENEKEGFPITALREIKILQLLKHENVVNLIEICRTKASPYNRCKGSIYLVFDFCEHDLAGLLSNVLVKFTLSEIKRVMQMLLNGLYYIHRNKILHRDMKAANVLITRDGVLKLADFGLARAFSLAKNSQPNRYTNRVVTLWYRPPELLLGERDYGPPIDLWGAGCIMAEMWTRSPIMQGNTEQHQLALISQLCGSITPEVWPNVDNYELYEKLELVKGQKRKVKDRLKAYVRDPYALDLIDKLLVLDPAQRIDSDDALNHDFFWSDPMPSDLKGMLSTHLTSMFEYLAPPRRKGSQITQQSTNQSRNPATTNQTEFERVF
# Source text: as §1, §2, §3, §4, §5, §6, §7, §8, §9, §10, §11, §12, §13
# GCK = molecular target: T9, GCK (Homo sapiens, UniProt Q12851)
# T9 construct: we opted to conduct a kinome screen (KiNativ) in PANC-1 cell lysates; endogenous in cells; host or cells: PANC-1 cell lysate
# T9 sequence (Q12851 whole entry): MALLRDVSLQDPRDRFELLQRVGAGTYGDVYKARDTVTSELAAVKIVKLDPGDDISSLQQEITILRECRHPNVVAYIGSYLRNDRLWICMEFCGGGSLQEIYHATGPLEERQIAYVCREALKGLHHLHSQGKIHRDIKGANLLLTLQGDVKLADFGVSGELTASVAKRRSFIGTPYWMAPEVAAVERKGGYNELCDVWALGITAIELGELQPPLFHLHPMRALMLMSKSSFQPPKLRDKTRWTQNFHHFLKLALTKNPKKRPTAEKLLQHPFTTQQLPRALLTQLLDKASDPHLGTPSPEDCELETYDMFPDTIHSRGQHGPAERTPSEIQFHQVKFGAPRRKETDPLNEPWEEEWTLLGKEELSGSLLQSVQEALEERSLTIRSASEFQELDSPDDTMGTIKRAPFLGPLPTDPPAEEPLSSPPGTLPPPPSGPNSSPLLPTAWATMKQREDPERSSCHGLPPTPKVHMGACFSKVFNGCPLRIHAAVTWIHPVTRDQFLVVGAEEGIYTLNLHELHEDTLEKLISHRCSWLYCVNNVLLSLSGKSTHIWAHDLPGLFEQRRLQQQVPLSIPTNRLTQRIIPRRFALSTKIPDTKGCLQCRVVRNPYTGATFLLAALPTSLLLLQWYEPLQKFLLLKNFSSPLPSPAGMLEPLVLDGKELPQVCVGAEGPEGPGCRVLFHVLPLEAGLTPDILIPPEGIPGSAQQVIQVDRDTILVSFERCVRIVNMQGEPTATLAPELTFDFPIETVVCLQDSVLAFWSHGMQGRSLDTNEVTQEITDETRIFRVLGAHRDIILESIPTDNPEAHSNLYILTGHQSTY
# Source text: as §1, §2, §3, §4, §5, §6, §7, §8, §9, §10, §11, §12, §13
# PLK1 = molecular target: T10, PLK1 (Homo sapiens, UniProt P53350)
# T10 construct: endogenous in cells; host or cells: PANC-1 cell lysate
# T10 sequence (P53350 whole entry): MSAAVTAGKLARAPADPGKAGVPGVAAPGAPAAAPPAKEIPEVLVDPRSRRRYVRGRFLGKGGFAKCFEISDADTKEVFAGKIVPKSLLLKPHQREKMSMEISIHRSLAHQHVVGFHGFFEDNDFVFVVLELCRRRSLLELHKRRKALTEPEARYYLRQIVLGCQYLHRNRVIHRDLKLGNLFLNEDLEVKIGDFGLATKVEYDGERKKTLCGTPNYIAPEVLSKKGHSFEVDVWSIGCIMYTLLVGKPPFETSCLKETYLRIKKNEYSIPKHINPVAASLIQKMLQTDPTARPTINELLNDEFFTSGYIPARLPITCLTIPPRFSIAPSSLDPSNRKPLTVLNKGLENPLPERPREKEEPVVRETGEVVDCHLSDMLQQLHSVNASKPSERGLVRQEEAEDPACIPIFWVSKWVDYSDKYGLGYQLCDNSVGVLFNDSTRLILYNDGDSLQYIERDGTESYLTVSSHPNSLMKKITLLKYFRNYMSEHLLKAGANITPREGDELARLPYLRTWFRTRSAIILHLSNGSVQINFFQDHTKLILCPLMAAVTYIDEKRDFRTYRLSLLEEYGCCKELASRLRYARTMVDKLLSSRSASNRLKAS
# Source text: as §1, §2, §3, §4, §5, §6, §7, §8, §9, §10, §11, §12, §13
# Erk2 = molecular target: T11, Erk2 (Homo sapiens, UniProt P28482); settings: Lys2
# T11 construct: endogenous in cells; host or cells: PANC-1 lysate
# Source text: as §1, §2, §3, §4, §5, §6, §7, §8, §9, §10, §11, §12, §13
# JAK3 domain2 = molecular target: T12, JAK3 domain2 (Homo sapiens, UniProt P52333); settings: Lys1
# T12 construct: we opted to conduct a kinome screen (KiNativ) in PANC-1 cell lysates; endogenous in cells; host or cells: PANC-1 cell lysate
# Source text: as §1, §2, §3, §4, §5, §6, §7, §8, §9, §10, §11, §12, §13
# NEK7 = molecular target: T13, NEK7 (Homo sapiens, UniProt Q8TDX7); settings: Lys1
# T13 construct: endogenous in cells; host or cells: PANC-1 cell lysate
# T13 sequence (Q8TDX7 whole entry): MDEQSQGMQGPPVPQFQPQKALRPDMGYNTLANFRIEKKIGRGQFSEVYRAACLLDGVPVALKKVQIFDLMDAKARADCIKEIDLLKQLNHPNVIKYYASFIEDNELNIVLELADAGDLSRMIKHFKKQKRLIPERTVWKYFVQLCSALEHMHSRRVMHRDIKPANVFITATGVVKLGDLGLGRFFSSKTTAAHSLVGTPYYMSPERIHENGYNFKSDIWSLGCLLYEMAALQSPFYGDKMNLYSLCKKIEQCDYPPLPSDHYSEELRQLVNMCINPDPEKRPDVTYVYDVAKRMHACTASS
# Source text: as §1, §2, §3, §4, §5, §6, §7, §8, §9, §10, §11, §12, §13
# DCAMKL2 = molecular target: T14, DCAMKL2 (Homo sapiens, UniProt Q8N568); settings: Lys2
# T14 construct: endogenous in cells; host or cells: PANC-1 lysate
# Source text: as §1, §2, §3, §4, §5, §6, §7, §8, §9, §10, §11, §12, §13
# MAP3K5 = molecular target: T15, MAP3K5 (Homo sapiens, UniProt Q99683); settings: Lys2
# T15 construct: endogenous in cells; host or cells: PANC-1 cell lysate
# Source text: as §1, §2, §3, §4, §5, §6, §7, §8, §9, §10, §11, §12, §13
# PIP4K2B = molecular target: T16, PIP4K2B (Homo sapiens, UniProt P78356); settings: ATP
# T16 construct: endogenous in cells; host or cells: PANC-1 cell lysate
# Source text: as §1, §2, §3, §4, §5, §6, §7, §8, §9, §10, §11, §12, §13
# CK1d, CK1e = settings: 5 µM; Lys2; DVKPDNFLMGLGKK
# Source text: as §1, §2, §3, §4, §5, §6, §7, §8, §9, §10, §11, §12, §13
# DLK = molecular target: T17, DLK (Homo sapiens, UniProt Q12852); settings: Lys2
# T17 construct: endogenous in cells; host or cells: PANC-1 lysate
# Source text: as §1, §2, §3, §4, §5, §6, §7, §8, §9, §10, §11, §12, §13
# PKCa, PKCb = settings: 5 µM; Lys2; DLKLDNVMLDSEGHIK
# Source text: as §1, §2, §3, §4, §5, §6, §7, §8, §9, §10, §11, §12, §13
# MASTL = molecular target: T18, MASTL (Homo sapiens, UniProt Q96GX5)
# T18 construct: endogenous in cells; host or cells: PANC-1
# T18 sequence (Q96GX5 whole entry): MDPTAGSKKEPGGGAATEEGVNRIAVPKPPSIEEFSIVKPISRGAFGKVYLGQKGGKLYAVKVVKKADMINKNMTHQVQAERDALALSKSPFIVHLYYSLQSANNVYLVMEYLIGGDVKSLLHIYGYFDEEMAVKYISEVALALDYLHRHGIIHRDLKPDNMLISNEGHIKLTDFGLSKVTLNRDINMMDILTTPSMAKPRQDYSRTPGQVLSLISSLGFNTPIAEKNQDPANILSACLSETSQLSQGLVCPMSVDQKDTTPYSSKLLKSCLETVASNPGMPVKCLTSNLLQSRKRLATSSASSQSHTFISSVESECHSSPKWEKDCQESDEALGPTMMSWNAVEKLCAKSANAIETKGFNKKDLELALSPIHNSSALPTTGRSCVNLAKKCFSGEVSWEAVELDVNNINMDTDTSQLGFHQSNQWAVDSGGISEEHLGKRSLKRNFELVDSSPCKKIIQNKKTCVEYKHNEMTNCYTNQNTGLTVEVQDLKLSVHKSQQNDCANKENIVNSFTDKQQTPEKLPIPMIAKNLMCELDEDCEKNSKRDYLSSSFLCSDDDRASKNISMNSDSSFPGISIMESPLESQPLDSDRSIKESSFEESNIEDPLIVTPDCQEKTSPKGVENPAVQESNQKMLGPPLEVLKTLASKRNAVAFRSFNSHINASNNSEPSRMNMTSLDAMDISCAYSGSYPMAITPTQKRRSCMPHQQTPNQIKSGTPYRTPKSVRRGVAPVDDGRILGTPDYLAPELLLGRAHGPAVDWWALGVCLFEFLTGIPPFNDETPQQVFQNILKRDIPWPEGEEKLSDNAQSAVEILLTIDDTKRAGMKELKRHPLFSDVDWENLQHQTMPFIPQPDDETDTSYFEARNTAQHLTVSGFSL
# Source text: as §1, §2, §3, §4, §5, §6, §7, §8, §9, §10, §11, §12, §13
# PI4KA, PI4KAP2 = settings: 5 µM; ATP; SGTPMQSAAKAPYLAK
# Source text: as §1, §2, §3, §4, §5, §6, §7, §8, §9, §10, §11, §12, §13
# PDK1 = molecular target: T19, PDK1 (Homo sapiens, UniProt O15530); settings: Lys1
# T19 construct: endogenous in cells; host or cells: PANC-1 cell lysate
# Source text: as §1, §2, §3, §4, §5, §6, §7, §8, §9, §10, §11, §12, §13
# AKT1 = molecular target: T20, AKT1 (Homo sapiens, UniProt P31749); settings: ATP Loop
# T20 construct: endogenous in cells; host or cells: PANC-1 cell lysate
# Source text: as §1, §2, §3, §4, §5, §6, §7, §8, §9, §10, §11, §12, §13
# MLK1 = molecular target: T21, MLK1 (Homo sapiens, UniProt P80192); settings: Lys2
# T21 construct: endogenous in cells; host or cells: PANC-1
# Source text: as §1, §2, §3, §4, §5, §6, §7, §8, §9, §10, §11, §12, §13
smiles,measurement,setting,value
"Cn1cc(-c2cnc3ccc(NC(=O)Nc4ccc(F)c(C(F)(F)F)c4)cc3n2)cn1 [51-106, 1-(4-Fluoro-3-(trifluoromethyl)phenyl)-3-(3-(1-methyl-1H-pyrazol-4-yl)quinoxalin-6-yl)urea]",inhibition at 5 µM,PITSLRE,≤ 0%
same,% Inhibition,"PCTAIRE2, PCTAIRE3",NB (NB = No Binding (≤ 0))
same,% Inhibition,"LOK; 5 µM, Lys1, NKETGALAAAKVIETK",NB (NB = No Binding (≤ 0))
same,inhibition at 5 µM,"LOK; Lys2, […]",≤ 0%
same,inhibition at 5 µM,PCTAIRE2,9.7%
same,inhibition at 5 µM,MST1,≤ 0%
same,% Inhibition,"HCK; 5 µM, ATP Loop, EGAKFPIKWTAPEAINFGSFTIK",NB (NB = No Binding (≤ 0))
same,inhibition at 5 µM,"HCK; Lys1, […]",≤ 0%
same,inhibition at 5 µM,AGK,≤ 0%
same,inhibition at 5 µM,Erk3,≤ 0%
same,inhibition at 5 µM,FRAP,≤ 0%
same,% Inhibition,"CDK9; 5 µM, Lys2, DMKAANVLITR",NB (NB = No Binding (≤ 0))
same,inhibition at 5 µM,"CDK9; ATP Loop, […]",≤ 0%
same,inhibition at 5 µM,"GCK; Lys1, DTVTSELAAVKIVK",18.3%
same,inhibition at 5 µM,"GCK; Lys2, DIKGANLLLTLQGDVK",3.9%
same,inhibition at 5 µM,"PLK1; Lys1, CFEISDADTKEVFAGKIVPK",≤ 0%
same,inhibition at 5 µM,"PLK1; Lys2, DLKLGNLFLNEDLEVK",10.9%
same,inhibition at 5 µM,Erk2,≤ 0%
same,inhibition at 5 µM,JAK3 domain2,25.2%
same,inhibition at 5 µM,NEK7,10.3%
same,inhibition at 5 µM,DCAMKL2,≤ 0%
same,inhibition at 5 µM,MAP3K5,11.7%
same,inhibition at 5 µM,PIP4K2B,≤ 0%
same,% Inhibition,"CK1d, CK1e",NB (NB = No Binding (≤ 0))
same,inhibition at 5 µM,DLK,5.9%
same,% Inhibition,"PKCa, PKCb",NB (NB = No Binding (≤ 0))
same,inhibition at 5 µM,"MASTL; ATP Loop, GAFGKVYLGQK",8.6%
same,inhibition at 5 µM,"MASTL; Lys1, LYAVKVVK",≤ 0%
same,% Inhibition,"PI4KA, PI4KAP2",3.0%
same,inhibition at 5 µM,PDK1,≤ 0%
same,inhibition at 5 µM,AKT1,≤ 0%
same,inhibition at 5 µM,MLK1,1.5%
